Source: PMC8889550 (JACS Au, 2022)

Biological target: T1, horseradish peroxidase (HRP) (Armoracia rusticana, UniProt P00433)
T1 sequence (P00433 31-338): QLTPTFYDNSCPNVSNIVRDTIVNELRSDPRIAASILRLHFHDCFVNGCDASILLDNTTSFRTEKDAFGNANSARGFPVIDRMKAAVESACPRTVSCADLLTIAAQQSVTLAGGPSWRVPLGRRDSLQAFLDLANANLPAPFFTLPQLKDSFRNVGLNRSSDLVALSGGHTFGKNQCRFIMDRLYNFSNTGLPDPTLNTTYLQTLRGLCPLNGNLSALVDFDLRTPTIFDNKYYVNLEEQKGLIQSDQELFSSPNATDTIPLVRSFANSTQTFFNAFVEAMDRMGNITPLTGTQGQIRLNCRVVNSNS
Experiment: coupled GOx/HRP cascade, Resorufin formation in plate reader
Type: biochemical
Settings: 200 μM Amplex Red; H2O2 generated by GOx from glucose; DNA-functionalized enzyme

With `CC(=O)N1c2ccc(O)cc2Oc2cc(O)ccc21` [Amplex Red] as the molecule, how does the “coupled GOx/HRP cascade, Resorufin formation in plate reader” value read?
Its value is “Amplex Red → Resorufin catalyzed by HRP”.
